Source: ChEMBL document CHEMBL3885861, “Open TG-GATES”

Species: Rattus norvegicus
Test: Open TG-GATES - Regimen: Single
Format: toxicity, organism-based, Sprague-Dawley
Parameters: regimen Single, gender Male, age 6 weeks
Conditions: in vivo, ip, 0 mg/kg, route intraperitoneal injection, dose 0 ug/Kg, dose level Control; for APTT / Bas / Eos / Fbg / Hb / Ht / Lym / MCH / MCHC / MCV / Mono / Neu / PT / Plat / RBC / Ret / WBC: tissue Blood; for KIDNEY_L / KIDNEY_R / KIDNEY_TOTAL: tissue Kidney; for LIVER: tissue Liver; for A/G / ALP / ALT / AST / BUN / CRE / Ca / Cl / DBIL / GLC / IP / K / LDH / Na / PL / RALB / TBIL / TC / TG / TP / gamma-GTP: tissue Plasma

Structure (SMILES): CC(=O)N[C@H]1[C@@H](O[C@@H]2O[C@H](CC(O)[C@H]3O[C@@H](n4ccc(=O)[nH]c4=O)[C@H](O)[C@@H]3O)[C@H](O)[C@H](O)[C@H]2NC(=O)/C=C/CC(C)C)O[C@H](CO)[C@@H](N)[C@@H]1O (some centres not stated) [TUNICAMYCIN]
- TERMINAL_BW (3 h): 221.9 g
- APTT (3 h): 21.5 s
- Bas (3 h): 0%
- Eos (3 h): 0.5%
- Fbg (3 h): 293.8 mg/dL
- Hb (3 h): 13 g/dL
- Ht (3 h): 39.6%
- Lym (3 h): 77%
- MCH (3 h): 21.1 pg
- MCHC (3 h): 32.9%
- MCV (3 h): 64.1 fL
- Mono (3 h): 2.8%
- Neu (3 h): 18.8%
- PT (3 h): 15.8 s
- Plat (3 h): 103.5 x10_4/uL
- RBC (3 h): 617.8 x10_4/ul
- Ret (3 h): 8.1%
- WBC (3 h): 129.5 x10_2/uL
- KIDNEY_L (3 h): 1 g
- KIDNEY_R (3 h): 1 g
- KIDNEY_TOTAL (3 h): 2 g
- LIVER (3 h): 10.3 g
- A/G (3 h): 1.2
- ALP (3 h): 1530.2 IU/L
- ALT (3 h): 45 IU/L
- AST (3 h): 75 IU/L
- BUN (3 h): 14 mg/dL
- CRE (3 h): 0.2 mg/dL
- Ca (3 h): 10.6 mg/dL
- Cl (3 h): 106.5 meq/L
- DBIL (3 h): 0 mg/dL
- GLC (3 h): 175.2 mg/dL
- IP (3 h): 8.4 mg/dL
- K (3 h): 4.4 meq/L
- LDH (3 h): 176.5 IU/L
- Na (3 h): 140.2 meq/L
- PL (3 h): 127.5 mg/dL
- RALB (3 h): 2.9 g/dL
- TBIL (3 h): 0.0125 mg/dL
- TC (3 h): 71.8 mg/dL
- TG (3 h): 72.5 mg/dL
- TP (3 h): 5.3 g/dL
- gamma-GTP (3 h): 1 IU/L
- TERMINAL_BW (6 h): 222.7 g
- APTT (6 h): 22.4 s
- Bas (6 h): 0%
- Eos (6 h): 0.4%
- Fbg (6 h): 306.8 mg/dL
- Hb (6 h): 13 g/dL
- Ht (6 h): 40.2%
- Lym (6 h): 75.2%
- MCH (6 h): 20.6 pg
- MCHC (6 h): 32.4%
- MCV (6 h): 63.4 fL
- Mono (6 h): 2%
- Neu (6 h): 22%
- PT (6 h): 15.4 s
- Plat (6 h): 114.6 x10_4/uL
- RBC (6 h): 634.2 x10_4/ul
- Ret (6 h): 7.9%
- WBC (6 h): 100.9 x10_2/uL
- KIDNEY_L (6 h): 1 g
- KIDNEY_R (6 h): 1 g
- KIDNEY_TOTAL (6 h): 2 g
- LIVER (6 h): 10.1 g
- A/G (6 h): 1.2
- ALP (6 h): 1339.6 IU/L
- ALT (6 h): 39.6 IU/L
- AST (6 h): 68.6 IU/L
- BUN (6 h): 11 mg/dL
- CRE (6 h): 0.1 mg/dL
- Ca (6 h): 10.9 mg/dL
- Cl (6 h): 104.8 meq/L
- DBIL (6 h): 0 mg/dL
- GLC (6 h): 186.8 mg/dL
- IP (6 h): 9.2 mg/dL
- K (6 h): 4.2 meq/L
- LDH (6 h): 142.8 IU/L
- Na (6 h): 142.4 meq/L
- PL (6 h): 133 mg/dL
- RALB (6 h): 2.9 g/dL
- TBIL (6 h): 0.018 mg/dL
- TC (6 h): 74.2 mg/dL
- TG (6 h): 63.2 mg/dL
- TP (6 h): 5.4 g/dL
- gamma-GTP (6 h): 1.2 IU/L
- TERMINAL_BW (9 h): 216.2 g
- APTT (9 h): 22.6 s
- Bas (9 h): 0%
- Eos (9 h): 0.6%
- Fbg (9 h): 299.2 mg/dL
- Hb (9 h): 13.1 g/dL
- Ht (9 h): 40.6%
- Lym (9 h): 81.2%
- MCH (9 h): 20.3 pg
- MCHC (9 h): 32.2%
- MCV (9 h): 63 fL
- Mono (9 h): 1.8%
- Neu (9 h): 15.8%
- PT (9 h): 15.7 s
- Plat (9 h): 118.2 x10_4/uL
- RBC (9 h): 643.6 x10_4/ul
- Ret (9 h): 7.7%
- WBC (9 h): 98.9 x10_2/uL
- KIDNEY_L (9 h): 1 g
- KIDNEY_R (9 h): 1 g
- KIDNEY_TOTAL (9 h): 1.9 g
- LIVER (9 h): 8.6 g
- A/G (9 h): 1.2
- ALP (9 h): 1451.4 IU/L
- ALT (9 h): 37.6 IU/L
- AST (9 h): 71 IU/L
- BUN (9 h): 11.2 mg/dL
- CRE (9 h): 0.1 mg/dL
- Ca (9 h): 10.3 mg/dL
- Cl (9 h): 104.8 meq/L
- DBIL (9 h): 0 mg/dL
- GLC (9 h): 195.4 mg/dL
- IP (9 h): 9.6 mg/dL
- K (9 h): 4.2 meq/L
- LDH (9 h): 158.4 IU/L
- Na (9 h): 141.8 meq/L
- PL (9 h): 128 mg/dL
- RALB (9 h): 2.8 g/dL
- TBIL (9 h): 0.024 mg/dL
- TC (9 h): 74.2 mg/dL
- TG (9 h): 54 mg/dL
- TP (9 h): 5.2 g/dL
- gamma-GTP (9 h): 1 IU/L
- TERMINAL_BW (24 h): 234.3 g
- APTT (24 h): 21.6 s
- Bas (24 h): 0%
- Eos (24 h): 1%
- Fbg (24 h): 295.2 mg/dL
- Hb (24 h): 12.7 g/dL
- Ht (24 h): 39.1%
- Lym (24 h): 78.6%
- MCH (24 h): 20.2 pg
- MCHC (24 h): 32.4%
- MCV (24 h): 62.4 fL
- Mono (24 h): 3.6%
- Neu (24 h): 16.2%
- PT (24 h): 16.2 s
- Plat (24 h): 119.3 x10_4/uL
- RBC (24 h): 626.8 x10_4/ul
- Ret (24 h): 7.3%
- WBC (24 h): 88.7 x10_2/uL
- KIDNEY_L (24 h): 1.1 g
- KIDNEY_R (24 h): 1.1 g
- KIDNEY_TOTAL (24 h): 2.1 g
- LIVER (24 h): 10.8 g
- A/G (24 h): 1.2
- ALP (24 h): 1584.8 IU/L
- ALT (24 h): 42.2 IU/L
- AST (24 h): 71.2 IU/L
- BUN (24 h): 16.6 mg/dL
- CRE (24 h): 0.1 mg/dL
- Ca (24 h): 10.5 mg/dL
- Cl (24 h): 105.2 meq/L
- DBIL (24 h): 0 mg/dL
- GLC (24 h): 184.4 mg/dL
- IP (24 h): 6.8 mg/dL
- K (24 h): 4.6 meq/L
- LDH (24 h): 146.4 IU/L
- Na (24 h): 141.2 meq/L
- PL (24 h): 136 mg/dL
- RALB (24 h): 3.1 g/dL
- TBIL (24 h): 0.008 mg/dL
- TC (24 h): 73.6 mg/dL
- TG (24 h): 70.8 mg/dL
- TP (24 h): 5.5 g/dL
- gamma-GTP (24 h): 1.8 IU/L
